Results: ChEMBL document CHEMBL1201862, “PubChem BioAssay data set” (2004)
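Test compounds were applied to cells in 96-well plates for 48 hours at 5 doses. GI50: concentration for 50% inhibition of growth.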 Active and inactive are the calls of the source. Cut-off read from the data, not from the text of the source: active = GI50 up to about 1.1 µM and inactive = higher.

How the values were obtained:
Test in all cases: growth of human tumour cells (NCI), 48 h
HT-29 = tested on: HT-29
SF-295 = tested on: SF-295
MCF7 = tested on: MCF7
A498 = tested on: A498
HCT-15 = tested on: HCT-15
T47D = tested on: T47D
HOP-62 = tested on: HOP-62
SN12C = tested on: SN12C
HOP-92 = tested on: HOP-92
786-0 = tested on: 786-0
MDA-MB-435 = tested on: MDA-MB-435
NCI-H226 = tested on: NCI-H226
COLO 205 = tested on: COLO 205
Hs-578T = tested on: Hs-578T
SK-MEL-2 = tested on: SK-MEL-2
BT-549 = tested on: BT-549
SK-OV-3 = tested on: SK-OV-3
RPMI-8226 = tested on: RPMI-8226
MOLT-4 = tested on: MOLT-4
CCRF-CEM = tested on: CCRF-CEM

SMILES	GI50 (HT-29)	GI50 (SF-295)	GI50 (MCF7)	GI50 (A498)	GI50 (HCT-15)	GI50 (T47D)	GI50 (HOP-62)	GI50 (SN12C)	GI50 (HOP-92)	GI50 (786-0)	GI50 (MDA-MB-435)	GI50 (NCI-H226)	GI50 (COLO 205)	GI50 (Hs-578T)	GI50 (SK-MEL-2)	GI50 (BT-549)	GI50 (SK-OV-3)	GI50 (RPMI-8226)	GI50 (MOLT-4)	GI50 (CCRF-CEM)
c1ccc(C(CCN2CCCC2)c2ccccn2)cc1 (stereo not given)	> 100 µM (inactive)	> 100 µM (inactive)	> 100 µM (inactive)	> 100 µM (inactive)	> 100 µM	> 100 µM (inactive)	> 100 µM (inactive)	> 100 µM (inactive)	> 100 µM (inactive)	> 100 µM (inactive)	> 100 µM (inactive)	> 100 µM (inactive)	> 100 µM (inactive)	> 100 µM (inactive)	> 100 µM (inactive)	> 100 µM (inactive)	> 100 µM (inactive)	> 100 µM (inactive)		
O=C(CCN1CCOCC1)Nc1ccc(F)cc1F	> 100 µM (inactive)	> 100 µM (inactive)	> 100 µM (inactive)	> 100 µM (inactive)	> 100 µM	> 100 µM (inactive)	> 100 µM (inactive)	> 100 µM (inactive)	> 100 µM (inactive)	> 100 µM (inactive)	> 100 µM (inactive)	> 100 µM (inactive)	> 100 µM (inactive)	> 100 µM (inactive)	> 100 µM (inactive)	> 100 µM (inactive)	> 100 µM (inactive)	> 100 µM (inactive)	> 100 µM (inactive)	
Brc1cccc(/N=N/N2CCCC2)c1		97.5 µM (inactive)	> 100 µM (inactive)	> 100 µM (inactive)	49.4 µM	50.2 µM (inactive)	> 100 µM (inactive)	> 100 µM (inactive)	63.1 µM (inactive)	> 100 µM (inactive)	> 100 µM (inactive)	> 100 µM (inactive)	> 100 µM (inactive)	> 100 µM (inactive)	> 100 µM (inactive)	68.9 µM (inactive)	> 100 µM (inactive)	17.2 µM (inactive)	71.8 µM (inactive)	49.2 µM (inactive)
CC(C)C1OC(/C=C/c2ccccc2)OCC1(C)C (stereo not given)	27.7 µM (inactive)	31 µM (inactive)	31.8 µM (inactive)	24 µM (inactive)	24.8 µM	31.4 µM (inactive)	32.1 µM (inactive)	21.6 µM (inactive)	17.9 µM (inactive)	37.1 µM (inactive)	33.7 µM (inactive)	23.5 µM (inactive)	16.6 µM (inactive)	22.8 µM (inactive)	18.2 µM (inactive)	36.1 µM (inactive)	48.3 µM (inactive)	17.8 µM (inactive)		20.9 µM (inactive)
CCCCC/N=C/c1c(O)c(O)c(C(C)C)c2cc(C)c(-c3c(C)cc4c(C(C)C)c(O)c(O)c(/C=N/CCCCC)c4c3O)c(O)c12	2.88 µM (inactive)		4.81 µM (inactive)	27.3 µM (inactive)	5.85 µM	3.98 µM (inactive)	15.3 µM (inactive)	7.94 µM (inactive)	3.73 µM (inactive)	11.8 µM (inactive)	6.3 µM (inactive)	23 µM (inactive)	2.75 µM (inactive)	17.2 µM (inactive)	14 µM (inactive)	7.87 µM (inactive)	7.06 µM (inactive)	8.26 µM (inactive)		25.2 µM (inactive)
CNC(=S)N1CCN(C(C)=O)C1=S	67.8 µM (inactive)	25.4 µM (inactive)	42 µM (inactive)	35.6 µM (inactive)	34.4 µM	19.5 µM (inactive)	70.5 µM (inactive)	57.7 µM (inactive)	82.2 µM (inactive)	> 100 µM (inactive)	22.2 µM (inactive)	22.4 µM (inactive)	97.5 µM (inactive)	23.6 µM (inactive)	2.25 µM (inactive)	12.9 µM (inactive)	66.8 µM (inactive)		30.8 µM (inactive)	46.5 µM (inactive)
COC(=O)c1ccccc1C1CN=NC12Cc1c(C)ccc(C)c1C2=O (stereo not given)	> 100 µM (inactive)	> 100 µM (inactive)	> 100 µM (inactive)	> 100 µM (inactive)	> 100 µM	> 100 µM (inactive)	> 100 µM (inactive)	> 100 µM (inactive)	23.3 µM (inactive)	> 100 µM (inactive)	> 100 µM (inactive)	> 100 µM (inactive)	> 100 µM (inactive)	> 100 µM (inactive)	> 100 µM (inactive)	> 100 µM (inactive)	> 100 µM (inactive)		88.5 µM (inactive)	> 100 µM (inactive)
C=CC[C@@H]1C=C[C@@H](C(=O)OC)n2c(=O)n(-c3ccccc3)c(=O)n21	> 100 µM (inactive)	> 100 µM (inactive)	> 100 µM (inactive)	> 100 µM (inactive)	> 100 µM	> 100 µM (inactive)	> 100 µM (inactive)	> 100 µM (inactive)	> 100 µM (inactive)	> 100 µM (inactive)	> 100 µM (inactive)	> 100 µM (inactive)	> 100 µM (inactive)	> 100 µM (inactive)		> 100 µM (inactive)	> 100 µM (inactive)	> 100 µM (inactive)	> 100 µM (inactive)	> 100 µM (inactive)
